Where “and” joins values, the source holds several entries; their conditions need not be identical. Equal entries are not always repeated. Records with an inconclusive call do not appear.
Tested on: BDF1 mice, s.c. Lewis lung carcinoma, T/C %
Assay: NCI In Vivo Anticancer Drug Screen. Data for tumor model Lewis Lung Carcinoma (subcutaneous) in B6D2F1 (BDF1) mice
Method in brief: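 Readout: survival or tumor size, expressed as treated (T) over vehicle control (C). Transplantable tumor implanted in mice; compound given to the treated group.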

In the case of `C[C@]12C=CC(=O)C=C1CC[C@@H]1[C@@H]2C(=O)C[C@@]2(C)[C@H]1CC[C@]2(O)C(=O)CO`, the T/C (endpoint: mean tumor weight, dose: 6.25 mg/kg/injection, schedule: Q01DX011 (sc), vehicle: steriod suspending solution, higher = larger tumour) is reported as 53 % of control, the T/C (endpoint: mean tumor weight, dose: 12.5 mg/kg/injection, schedule: Q01DX011 (sc), vehicle: steriod suspending solution, higher = larger tumour) is reported as 36 % of control and the T/C (endpoint: mean tumor weight, dose: 25.0 mg/kg/injection, schedule: Q01DX011 (sc), vehicle: steriod suspending solution, higher = larger tumour) is reported as 22 % of control. For the same molecule, the T/C (endpoint: mean tumor weight, dose: 50.0 mg/kg/injection, schedule: Q01DX011 (sc), vehicle: steriod suspending solution, higher = larger tumour) was 25 % of control, the T/C (endpoint: median survival time, dose: 50.0 mg/kg/injection, schedule: Q01DX009 (ip), vehicle: Klucel (hydroxypropylcellulose) (HPC), higher = longer survival) was 88 % of control and the T/C (endpoint: median survival time, dose: 50.0 mg/kg/injection, schedule: Q01DX009 (ip), vehicle: saline with Tween-80, higher = longer survival) was 102 % of control and 122 % of control. The T/C (endpoint: median survival time, dose: 100.0 mg/kg/injection, schedule: Q01DX009 (ip), vehicle: Klucel (hydroxypropylcellulose) (HPC), higher = longer survival) was 107 % of control and the T/C (endpoint: median tumor weight (est.), dose: 50.0 mg/kg/injection, schedule: Q01DX009 (ip), vehicle: saline with Tween-80, higher = larger tumour) was 70 % of control.

In the case of `O=[N+]([O-])c1ccc2c(N=Nc3ccc4ccccc4c3O)c(O)cc(S(=O)(=O)O)c2c1`, the T/C (endpoint: median survival time, dose: 37.5 mg/kg/injection, schedule: Q01DX009 (ip), vehicle: saline, higher = longer survival) is reported as 101 % of control, the T/C (endpoint: median survival time, dose: 75.0 mg/kg/injection, schedule: Q01DX009 (ip), vehicle: saline, higher = longer survival) is reported as 109 % of control and the T/C (endpoint: median survival time, dose: 150.0 mg/kg/injection, schedule: Q01DX009 (ip), vehicle: saline, higher = longer survival) is reported as 94 % of control.

`COc1cc2c[n+](C)c3c4cc5c(cc4ccc3c2cc1OC)OCO5` was tested, and the T/C (endpoint: median survival time, dose: 5.0 mg/kg/injection, schedule: Q01DX009 (ip), vehicle: water, higher = longer survival) was 103 % of control, the T/C (endpoint: median survival time, dose: 10.0 mg/kg/injection, schedule: Q01DX009 (ip), vehicle: water, higher = longer survival) was 107 % of control and the T/C (endpoint: median survival time, dose: 20.0 mg/kg/injection, schedule: Q01DX009 (ip), vehicle: water, higher = longer survival) was 87 % of control.

For `COc1cc2c(cc1NC(=O)N(CCCl)N=O)-c1ccccc1C2`, the T/C (endpoint: median survival time, dose: 118.0 mg/kg/injection, schedule: Q01DX001 (ip), vehicle: saline with Tween-80, higher = longer survival) was 93 % of control, the T/C (endpoint: median survival time, dose: 177.0 mg/kg/injection, schedule: Q01DX001 (ip), vehicle: saline with Tween-80, higher = longer survival) was 114 % of control and the T/C (endpoint: median survival time, dose: 266.0 mg/kg/injection, schedule: Q01DX001 (ip), vehicle: saline with Tween-80, higher = longer survival) was 106 % of control. For the same molecule, the T/C (endpoint: median survival time, dose: 400.0 mg/kg/injection, schedule: Q01DX001 (ip), vehicle: saline with Tween-80, higher = longer survival) was 101 % of control and the T/C (endpoint: median survival time, dose: 600.0 mg/kg/injection, schedule: Q01DX001 (ip), vehicle: saline with Tween-80, higher = longer survival) was 90 % of control.

For `N[C@@H](Cc1ccc(N(CCCl)CCCl)cc1)C(=O)O`, the T/C (endpoint: mean tumor weight, dose: 0.5 mg/kg/injection, schedule: Q01DX011 (ip), vehicle: saline, higher = larger tumour) was 76 % of control, the T/C (endpoint: mean tumor weight, dose: 0.8 mg/kg/injection, schedule: Q01DX011 (ip), vehicle: carboxymethylcellulose (CMC), higher = larger tumour) was 71 % of control and the T/C (endpoint: mean tumor weight, dose: 1.0 mg/kg/injection, schedule: Q01DX011 (ip), vehicle: saline, higher = larger tumour) was 46 % of control. The T/C (endpoint: mean tumor weight, dose: 1.6 mg/kg/injection, schedule: Q01DX011 (ip), vehicle: carboxymethylcellulose (CMC), higher = larger tumour) was 70 % of control, the T/C (endpoint: mean tumor weight, dose: 2.0 mg/kg/injection, schedule: Q01DX011 (ip), vehicle: saline, higher = larger tumour) was 46 % of control and the T/C (endpoint: mean tumor weight, dose: 2.4 mg/kg/injection, schedule: Q01DX011 (ip), vehicle: carboxymethylcellulose (CMC), higher = larger tumour) was 68 % of control and 69 % of control. The T/C (endpoint: mean tumor weight, dose: 3.6 mg/kg/injection, schedule: Q01DX011 (ip), vehicle: carboxymethylcellulose (CMC), higher = larger tumour) was 45 % of control, the T/C (endpoint: mean tumor weight, dose: 4.0 mg/kg/injection, schedule: Q01DX011 (ip), vehicle: saline, higher = larger tumour) was 21 % of control and the T/C (endpoint: mean tumor weight, dose: 5.4 mg/kg/injection, schedule: Q01DX011 (ip), vehicle: carboxymethylcellulose (CMC), higher = larger tumour) was 20 % of control. For the same molecule, the T/C (endpoint: median survival time, dose: 0.04 mg/kg/injection, schedule: Q01DX009 (ip), vehicle: saline, higher = longer survival) was 115 % of control, the T/C (endpoint: median survival time, dose: 0.08 mg/kg/injection, schedule: Q01DX009 (ip), vehicle: saline, higher = longer survival) was 103 % of control and the T/C (endpoint: median survival time, dose: 0.31 mg/kg/injection, schedule: Q01DX009 (ip), vehicle: saline, higher = longer survival) was 107 % of control. The T/C (endpoint: median survival time, dose: 0.5 mg/kg/injection, schedule: Q01DX009 (ip), vehicle: saline with Tween-80, higher = longer survival) was 101 % of control, the T/C (endpoint: median survival time, dose: 0.5 mg/kg/injection, schedule: Q01DX009 (ip), vehicle: saline, higher = longer survival) was 104 % of control and 122 % of control and the T/C (endpoint: median survival time, dose: 0.75 mg/kg/injection, schedule: Q01DX009 (ip), vehicle: saline, higher = longer survival) was 102 % of control. For the same molecule, the T/C (endpoint: median survival time, dose: 1.0 mg/kg/injection, schedule: Q01DX009 (ip), vehicle: Klucel (hydroxypropylcellulose) (HPC), higher = longer survival) was 107 % of control, the T/C (endpoint: median survival time, dose: 1.0 mg/kg/injection, schedule: Q01DX009 (ip), vehicle: saline with Tween-80, higher = longer survival) was 108 % of control and the T/C (endpoint: median survival time, dose: 1.0 mg/kg/injection, schedule: Q01DX009 (ip), vehicle: saline, higher = longer survival) was 107 % of control. For the same molecule, the T/C (endpoint: median survival time, dose: 1.5 mg/kg/injection, schedule: Q01DX009 (ip), vehicle: saline, higher = longer survival) was 93 % of control, the T/C (endpoint: median survival time, dose: 2.0 mg/kg/injection, schedule: Q01DX001 (ip), vehicle: saline, higher = longer survival) was 106 % of control and the T/C (endpoint: median survival time, dose: 2.0 mg/kg/injection, schedule: Q01DX009 (ip), vehicle: Klucel (hydroxypropylcellulose) (HPC), higher = longer survival) was 89 % of control. The T/C (endpoint: median survival time, dose: 2.0 mg/kg/injection, schedule: Q01DX009 (ip), vehicle: saline with Tween-80, higher = longer survival) was 97 % of control, the T/C (endpoint: median survival time, dose: 2.5 mg/kg/injection, schedule: Q01DX001 (ip), vehicle: saline, higher = longer survival) was 100 % of control and the T/C (endpoint: median survival time, dose: 2.5 mg/kg/injection, schedule: Q01DX001 (ip), vehicle: water, higher = longer survival) was 90 % of control. For the same molecule, the T/C (endpoint: median survival time, dose: 3.0 mg/kg/injection, schedule: Q01DX009 (ip), vehicle: saline, higher = longer survival) was 116 % of control, the T/C (endpoint: median survival time, dose: 4.0 mg/kg/injection, schedule: Q01DX001 (ip), vehicle: saline, higher = longer survival) was 100 % of control and the T/C (endpoint: median survival time, dose: 4.0 mg/kg/injection, schedule: Q01DX009 (ip), vehicle: Klucel (hydroxypropylcellulose) (HPC), higher = longer survival) was 104 % of control. For the same molecule, the T/C (endpoint: median survival time, dose: 4.0 mg/kg/injection, schedule: Q01DX009 (ip), vehicle: saline, higher = longer survival) was 100 % of control and 123 % of control, the T/C (endpoint: median survival time, dose: 4.0 mg/kg/injection, schedule: Q04DX003 (ip), vehicle: saline, higher = longer survival) was 119 % of control and the T/C (endpoint: median survival time, dose: 5.0 mg/kg/injection, schedule: Q01DX001 (ip), vehicle: water, higher = longer survival) was 109 % of control. The T/C (endpoint: median survival time, dose: 8.0 mg/kg/injection, schedule: Q01DX001 (ip), vehicle: saline, higher = longer survival) was 112 % of control, the T/C (endpoint: median survival time, dose: 8.0 mg/kg/injection, schedule: Q01DX009 (ip), vehicle: saline, higher = longer survival) was 86 % of control and the T/C (endpoint: median survival time, dose: 8.0 mg/kg/injection, schedule: Q04DX003 (ip), vehicle: saline, higher = longer survival) was 107 % of control. For the same molecule, the T/C (endpoint: median survival time, dose: 10.0 mg/kg/injection, schedule: Q01DX001 (ip), vehicle: saline, higher = longer survival) was 100 % of control, the T/C (endpoint: median survival time, dose: 10.0 mg/kg/injection, schedule: Q01DX001 (ip), vehicle: water, higher = longer survival) was 104 % of control and the T/C (endpoint: median tumor weight (est.), dose: 6.3 mg/kg/injection, schedule: Q01DX001 (ip), vehicle: carboxymethylcellulose (CMC), higher = larger tumour) was 41 % of control. The T/C (endpoint: median tumor weight (est.), dose: 13.0 mg/kg/injection, schedule: Q01DX001 (ip), vehicle: carboxymethylcellulose (CMC), higher = larger tumour) was 39 % of control.

Source: PubChem BioAssay AID270 (DTP/NCI, 2004)
